From patent publication US11344510B2, “Arylcyclohexylamine derivatives and their use in the treatment of psychiatric disorders” (Gilgamesh Pharmaceuticals, Inc., priority 2019, dated 2022)

Columns and labels:
[1] = target: T1, serotonin transporter (SERT) (Homo sapiens, UniProt P31645); test: Fluorescent substrate uptake inhibition, SERT; format: cell-based; details: 10 μM, HEK293 cells expressing SERT
T1 construct: expressed in transfected cells; host or cells: HEK293
Experimental: (§1) Uptake Inhibition. The ability of test compounds to block monoamine uptake by SERT, NET, DAT, and VMAT2 was determined using the Neurotransmitter Transporter Uptake Assay Kit manufactured by Molecular Devices (Cat #R8173). Briefly, stably transfected cells expressing the MAT of interest (HEK293 cells for SERT and NET; CHO cells for DAT) were grown and plated into 384-well plates at a concentration of 20,000 cells per well. Plates were then incubated for 16-20 h at 37° C. and 5% CO2. The medium was then aspirated and replaced with 25 μL of assay buffer (20 mM HEPES in HBSS, containing 0.1% BSA) containing the test compounds at the appropriate concentrations. Plates were then centrifuged at 300 rpm for 15 s and then incubated at 37° C. for 30 minutes. At this time, 25 μL of the proprietary fluorescent dye solution was added, the plates were incubated at 37° C. for 60 minutes, and then fluorescence was quantified on a plate reader (excitation wavelength=440 nm, emission wavelength=520 nm). The proprietary dye solution contains a mixture of 1) a fluorescent dye that mimics the endogenous substrates of MATs and is thereby actively transported to the intracellular compartment in the absence of an inhibitor and 2) a masking dye that inhibits the fluorescence of dye 1 in the extracellular compartment. Therefore, the overall fluorescence of the system increases as the fluorescent dye is transported into the cells.

[2] = RLM stability (High Activity); format: in vitro ADME, Sprague Dawley rats; details: male, Sprague Dawley, rat, liver microsomes, pH 7.4, Condition 2 (High Activity), 1 μM, 1.0 mg protein/mL
Experimental: (§2) RLM Stability (High Activity). Pooled RLM from male Sprague Dawley rats (XenoTech R1000, lot #1910100) were used. Microsomal incubations were carried out in 96-well plates in 5 aliquots of 40 μL each (one for each time point). Liver microsomal incubation medium consisted of PBS (100 mM, pH 7.4), MgCl2 (3.3 mM), NADPH (3 mM), glucose-6-phosphate (5.3 mM), and glucose-6-phosphate dehydrogenase (0.67 units/mL), with 1.0 mg of liver microsomal protein per mL. Control incubations were performed by replacing the NADPH-cofactor system with PBS. Test compounds (1 μM, final solvent concentration 1.6%) were incubated with microsomes at 37° C., shaking at 100 rpm. Incubations were performed in duplicate. Five time points over 60 minutes were analyzed. The reactions were stopped by adding 9 volumes of 90% acetonitrile-water to incubation aliquots, followed by protein sedimentation by centrifugation at 5500 rpm for 3 minutes. Supernatants were analyzed for parent compound remaining using a fit-for-purpose liquid chromatography-tandem mass spectrometry (LC-MS/MS) method, with authentic samples of each analyte used for identity confirmation.
(§3) Data Analysis. The elimination constant (kel), half-life (t1/2) and intrinsic clearance (Clint) were determined in a plot of […] versus time, using linear regression analysis.

[3] = target: MK-801 binding site of the N-methyl-D-aspartate receptor (NMDAR); test: NMDAR radioligand binding with [3H]MK-801, Method B; parameters: species or system Sprague Dawley rat; details: MK-801 site, Method B, male Sprague Dawley rat cortex, 5.0 nM [3H]MK-801; read-out: NMDAR Ki ± SEM
Experimental: Radioligand Binding—Method B. Affinity of the test compounds for NMDAR was determined in radioligand binding experiments with [^3H]MK-801 by WuXi AppTec (Hong Kong) Limited, under the conditions described in Table 13.

[4] = target: T2, vesicular monoamine transporter 2 (VMAT2) (Homo sapiens, UniProt Q05940); test: Fluorescent substrate uptake inhibition, VMAT2; format: cell-based; details: 10 μM, transfected cells
T2 construct: expressed in transfected cells
Experimental: as §1

[5] = MLM stability (High Activity); format: in vitro ADME, BALB/c mice; details: male, BALB/c, mouse, liver microsomes, pH 7.4, Condition 2 (High Activity), 1.0 mg protein/mL
Experimental: as §2, with “MLM” for “RLM”, “BALB/c mice” for “Sprague Dawley rats”, “M3000)” for “R1000, lot #1910100)”
as §3

[6] = target: T3, norepinephrine transporter (NET) (Homo sapiens, UniProt P23975); test: Fluorescent substrate uptake inhibition, NET; format: cell-based; details: 10 μM, HEK293 cells expressing NET
T3 construct: expressed in transfected cells; host or cells: HEK293
Experimental: as §1

[7] = target: T4, dopamine transporter (DAT) (Homo sapiens, UniProt Q01959); test: Fluorescent substrate uptake inhibition, DAT; format: cell-based; details: 10 μM, CHO cells expressing DAT
T4 construct: expressed in transfected cells; host or cells: CHO (uptake)
Experimental: as §1

[8] = HLM stability (High Activity); format: in vitro ADME; details: both sexes, human, liver microsomes, pH 7.4, Condition 2 (High Activity), 1.0 mg protein/mL
Experimental: (§4) HLM Stability (High Activity). Pooled HLM from adult male and female donors (XenoTech H0630) were used. Microsomal incubations were carried out in 96-well plates in 5 aliquots of 40 μL, each (one for each time point). Liver microsomal incubation medium consisted of PBS (100 mM, pH 7.4), MgCl2 (3.3 mM), NADPH (3 mM), glucose-6-phosphate (5.3 mM), and glucose-6-phosphate dehydrogenase (0.67 units/mL), with 1.0 mg of liver microsomal protein per mL. Control incubations were performed by replacing the NADPH-cofactor system with PBS. Test compounds (1 μM, final solvent concentration 1.6%) were incubated with microsomes at 37° C., shaking at 100 rpm. Incubations were performed in duplicate. Five time points over 60 minutes were analyzed. The reactions were stopped by adding 12 volumes of 90% acetonitrile-water to incubation aliquots, followed by protein sedimentation by centrifugation at 5500 rpm for 3 minutes. Supernatants were analyzed for parent compound remaining using a fit-for-purpose liquid chromatography-tandem mass spectrometry (LC-MS/MS) method, with authentic samples of each analyte used for identity confirmation.
as §3

[9] = HLM stability (Low Activity); format: in vitro ADME; details: both sexes, human, liver microsomes, pH 7.4, Condition 1 (Low Activity), 0.42 mg protein/mL
Experimental: For some of the compounds, stability was tested under two microsomal incubation conditions, one with normal enzymatic activity (low activity) and one with higher enzymatic loading, longer incubation time, and lower compound concentration (high activity) intended to increase metabolic lability.
as §4, with “Stability (Low” for “Stability (High”, “with 0.42” for “with 1.0”, “compounds (2” for “compounds (1”, “over 40” for “over 60”
as §3

[10] = target: MK-801 binding site of the N-methyl-D-aspartate receptor (NMDAR); test: NMDAR radioligand binding with [3H]MK-801, Method A; parameters: species or system Wistar rat; details: MK-801 site, Method A, Wistar rat brain (minus cerebellum), 5.0 nM [3H]MK-801; read-out: NMDAR Ki ± SEM
Experimental: Radioligand Binding—Method A. Affinity of the test compounds for NMDAR was determined in radioligand binding experiments with [^3H]MK-801 by Eurofins Panlabs, Inc., using methods adapted from the literature (Javitt et al. 1987; Reynolds et al. 1989) and under the conditions described in Table 12.

T4 sequence (Q01959 whole entry, species assumed): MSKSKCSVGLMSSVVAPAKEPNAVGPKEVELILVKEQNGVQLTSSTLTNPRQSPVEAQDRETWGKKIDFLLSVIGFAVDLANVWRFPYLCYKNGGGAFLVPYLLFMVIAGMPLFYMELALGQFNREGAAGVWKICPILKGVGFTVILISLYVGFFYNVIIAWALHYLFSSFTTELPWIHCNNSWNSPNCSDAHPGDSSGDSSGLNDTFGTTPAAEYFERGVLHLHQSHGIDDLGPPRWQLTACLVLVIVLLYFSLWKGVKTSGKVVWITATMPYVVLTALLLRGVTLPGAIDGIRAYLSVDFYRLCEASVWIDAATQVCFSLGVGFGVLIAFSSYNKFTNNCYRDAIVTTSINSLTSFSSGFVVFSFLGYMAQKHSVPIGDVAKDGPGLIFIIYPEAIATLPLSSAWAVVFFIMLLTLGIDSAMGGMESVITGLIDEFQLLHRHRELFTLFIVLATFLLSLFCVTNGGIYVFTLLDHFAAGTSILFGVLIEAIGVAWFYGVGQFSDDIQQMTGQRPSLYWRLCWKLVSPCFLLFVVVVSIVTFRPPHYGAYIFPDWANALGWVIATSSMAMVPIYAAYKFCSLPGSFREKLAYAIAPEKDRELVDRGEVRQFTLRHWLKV
T1 sequence (P31645 whole entry, species assumed): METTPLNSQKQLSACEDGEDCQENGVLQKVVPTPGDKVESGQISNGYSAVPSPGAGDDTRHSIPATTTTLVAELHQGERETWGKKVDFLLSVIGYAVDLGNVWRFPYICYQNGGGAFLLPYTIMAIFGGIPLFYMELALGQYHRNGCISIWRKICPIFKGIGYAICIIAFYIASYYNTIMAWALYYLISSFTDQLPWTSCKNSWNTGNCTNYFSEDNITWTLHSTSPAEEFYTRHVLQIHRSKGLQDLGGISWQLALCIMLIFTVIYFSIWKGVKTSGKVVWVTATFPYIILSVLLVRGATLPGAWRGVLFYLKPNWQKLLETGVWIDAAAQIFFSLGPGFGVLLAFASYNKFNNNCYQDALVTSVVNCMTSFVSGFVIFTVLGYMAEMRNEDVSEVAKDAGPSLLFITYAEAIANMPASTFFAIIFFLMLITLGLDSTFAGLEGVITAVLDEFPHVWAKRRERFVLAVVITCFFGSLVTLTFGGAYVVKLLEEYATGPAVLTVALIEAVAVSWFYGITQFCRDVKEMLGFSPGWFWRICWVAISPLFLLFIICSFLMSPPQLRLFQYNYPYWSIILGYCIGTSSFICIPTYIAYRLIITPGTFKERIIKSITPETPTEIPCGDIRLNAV
T3 sequence (P23975 whole entry, species assumed): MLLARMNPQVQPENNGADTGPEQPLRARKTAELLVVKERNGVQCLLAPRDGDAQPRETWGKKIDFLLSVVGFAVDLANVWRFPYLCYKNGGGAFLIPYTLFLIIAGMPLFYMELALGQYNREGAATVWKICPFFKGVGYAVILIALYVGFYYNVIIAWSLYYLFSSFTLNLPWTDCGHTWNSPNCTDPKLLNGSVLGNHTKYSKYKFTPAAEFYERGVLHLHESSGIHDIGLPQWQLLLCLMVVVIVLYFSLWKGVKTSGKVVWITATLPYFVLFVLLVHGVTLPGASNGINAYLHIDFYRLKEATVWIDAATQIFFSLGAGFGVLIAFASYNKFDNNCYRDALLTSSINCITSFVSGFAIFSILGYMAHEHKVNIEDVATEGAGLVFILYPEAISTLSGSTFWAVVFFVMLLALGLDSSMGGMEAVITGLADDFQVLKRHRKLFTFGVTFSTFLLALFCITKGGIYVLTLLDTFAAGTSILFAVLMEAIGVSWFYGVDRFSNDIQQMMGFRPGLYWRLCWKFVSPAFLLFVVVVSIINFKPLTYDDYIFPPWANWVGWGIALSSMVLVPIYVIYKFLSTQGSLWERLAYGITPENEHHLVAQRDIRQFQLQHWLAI
T2 sequence (Q05940 whole entry, species assumed): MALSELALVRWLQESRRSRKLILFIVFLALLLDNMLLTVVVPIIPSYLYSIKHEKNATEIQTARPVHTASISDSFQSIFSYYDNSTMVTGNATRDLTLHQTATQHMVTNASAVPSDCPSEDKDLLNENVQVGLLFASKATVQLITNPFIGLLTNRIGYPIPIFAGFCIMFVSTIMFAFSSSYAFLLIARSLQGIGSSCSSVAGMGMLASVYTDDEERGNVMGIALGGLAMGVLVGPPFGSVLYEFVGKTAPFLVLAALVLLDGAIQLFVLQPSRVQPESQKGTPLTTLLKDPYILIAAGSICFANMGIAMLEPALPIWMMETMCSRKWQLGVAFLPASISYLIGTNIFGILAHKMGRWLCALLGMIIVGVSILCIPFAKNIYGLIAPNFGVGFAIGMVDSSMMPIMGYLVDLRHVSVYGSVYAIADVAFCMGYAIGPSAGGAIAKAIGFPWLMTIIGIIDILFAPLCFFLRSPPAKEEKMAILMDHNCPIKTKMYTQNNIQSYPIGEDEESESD

SMILES | inhibition at 10 µM [1] [%] | half-life at 1 μM [2] [min] | microsomal CLint at 1 μM [2] [µL/min/mg] | Ki [3] [µM] | inhibition at 10 µM [4] [%] | half-life at 1 μM [5] [min] | microsomal CLint at 1 μM [5] [µL/min/mg] | inhibition at 10 µM [6] [%] | inhibition at 10 µM [7] [%] | half-life at 1 μM [8] [min] | microsomal CLint at 1 μM [8] [µL/min/mg] | half-life at 2 μM [9] [min] | microsomal CLint at 2 μM [9] [µL/min/mg] | Ki [10] [nM]
CN[C@@]1(c2cccc(F)c2)CCCCC1=O [Compound 19R, (R)-2-(3-fluorophenyl)-2-(methylamino)cyclohexan-1-one] | 20.9 | 11.7 | 59 | 6.8 | 11 | 59.9 | 12 | 8.8 | -10.7 | 136 | 5 | – | – | –
NC1(c2ccccc2)CCCCC1=O (racemic) [Compound 11rac, 2-amino-2-phenyl-cyclohexan-1-one] | – | – | – | – | – | – | – | – | – | 534 | 1 | 803 | 2 | 1400
CNC1(c2cccc(OC)c2)CCCCC1=O (racemic) [Compound 3rac] | – | – | – | – | – | – | – | – | – | 150 | 5 | 87.5 | 19 | 990
CCNC1(c2ccccc2)CCCCC1=O (racemic) [Compound 1rac] | – | – | – | – | – | – | – | – | – | 299 | 2 | 133 | 13 | 300
NC1(c2ccccc2Cl)CCCCC1=O (racemic) [Compound 78rac] | – | – | – | – | – | – | – | – | – | 182 | 4 | 257 | 7 | 4000
